{
  "source": "patent US10039846B2",
  "about": "“Compositions targeting bradykinin receptor B1 for medical imaging of cancer and other disorders” (BRITISH COLUMBIA CANCER AGENCY BRANCH, priority 2012, dated 2018)",
  "key": {"in vivo": {"experiment": "in vivo", "details": "NODSCID/IL2RKO, mouse, total radioactivity", "procedure": "(§1) ^68Ga labeling of Peptide 4 was performed in NaOAc buffer (pH 4.1) at 110° C. for 10 min, and [^68Ga]P03083 was purified by HPLC. PET imaging and biodistribution studies were performed in NODSCID/IL2RKO mice bearing both B1R-negative HEK293T:GFP tumour and B1R-positive HEK293T:hB1R tumour."}, "[1]": {"test_system": "B1R-negative HEK293T:GFP tumour and B1R-positive HEK293T:hB1R tumour", "experiment": "in vivo", "details": "mouse", "procedure": "as §1"}, "[2]": {"test_system": "HEK-293 and HEK-293/BKRB1 tumours", "experiment": "PET/CT imaging of 68Ga-labelled peptides in tumour-bearing mice", "details": "PET/CT 60 minutes after intravenous injection", "experimental": "(§2) For in vivo imaging, HEK-293 and HEK-293 cells stably transfected with the human bradykinin receptor B1 (HEK-293/BKRB1) were inoculated in the flank of immunodeficient mice (NODSCID IL2rKO). […] A computer tomography image of the mouse was obtained for organ localization and attenuation correction, followed by PET imaging, using a Siemens Inveon multimodality preclinical scanner. Images were acquired over 10-15 minutes for each animal."}, "[3]": {"test_system": "HEK-293 and HEK-293/BKRB1 tumours", "details": "mouse", "experimental": "as §2"}, "B1R [4]": {"biological_target": "T1, B1R (Homo sapiens, UniProt P46663)", "T1 sequence (P46663 1-353)": "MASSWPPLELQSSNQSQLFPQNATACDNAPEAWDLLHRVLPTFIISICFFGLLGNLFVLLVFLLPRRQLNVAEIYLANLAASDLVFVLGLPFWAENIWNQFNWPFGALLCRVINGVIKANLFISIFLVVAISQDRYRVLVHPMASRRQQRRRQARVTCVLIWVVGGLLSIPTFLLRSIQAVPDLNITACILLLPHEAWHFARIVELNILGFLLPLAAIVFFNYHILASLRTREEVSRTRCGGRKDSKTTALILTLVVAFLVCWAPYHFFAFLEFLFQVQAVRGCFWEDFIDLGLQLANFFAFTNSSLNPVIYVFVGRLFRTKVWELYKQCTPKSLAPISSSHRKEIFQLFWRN", "experiment": "Competitive binding assay with 3H radioligand on CHO-K1 cell membranes over-expressing human B1R", "design": "purchased Perkin Elmer Inc., Waltham, Mass; ES-091-M400UA; host or cells: CHO-K1 cells over-expressing human B1R (membrane preparation)", "procedure": "The ability of the peptide and small molecule B1R targeting compounds to bind to B1R was assessed in competitive binding assay as described below.\nPreparation of Cell Membranes: Ready to use cell membranes (12.5 μg/μL) from CHO-K1 cells over-expressing human B1R were obtained from Perkin Elmer Inc., Waltham, Mass. (cat. no. ES-091-M400UA). Binding using cell membranes from HEK293T::GFP::hB1R (from Example 3) was also tested. In the latter case, the membranes were prepared as follows: 90% confluent cells grown in large flask, T225, were detached and pelleted in a 50 mL conical tube using centrifuge at 1,200 rpm for 5 minutes. Afterward, cells were re-suspended in 20-30 mL of cold 50 mM Tris-HCl pH 7.4. Ice cold cells were disrupted for 15 seconds at 15,000 rpm with a Polytron PT3100 (Kinematica AG, Lucerne, Switzerland). The solution was aliquoted and centrifuged at 4° C. at 17,000×g for 30 minutes. The supernatant was discarded, and then the pellet was dissolved in 1-2 mL of cold salt solution containing 50 mM Tris-HCl pH 7.4 and 100 mM NaCl and incubated for 1 hour on ice. The cell membranes were pelleted by centrifugation at 4° C. at 17,000×g for 30 minutes and resuspended in 200-600 μL of 50 mM Tris-HCl pH 7.4. The cell membrane extract was stored at −80° C. Protein concentration was determined by Bradford assay (cat. no. R1271, Fermentas, Thermo Fisher Scientific, Burlington, ON). 50 ug of cell membranes per well was used for the competitive binding assay. […] Radio-labelled control was H-3 labelled [Leu^9,des-Arg^10] kallidin obtained either from American Radiolabelled Chemicals Inc, St. Louis, Mo.\nCompetitive Binding Assays: Assays were performed using 96-well MultiScreenHTS with glass fiber filter and PVDF support obtained from Millipore Corp, Billerica, Mass. (cat. no. MSFB N6B, lot no. R8AN42424). Wells of the MultiScreen plate were pre-soaked with 0.5% of cold Poly(ethyleneimine) (PEI) (cat. no. P3143, Sigma-Aldrich, St. Louis, Mo.) for 30 minutes. Afterward, wells were washed once with 50 mM of Tris-HCl pH 7.4. Total volume per wells was 200 μL. A fixed concentration of the hot radioligand (1, 3, 5 or 12.5 nM depending on the radioligand; see Table 5) was incubated with progressively higher concentrations (10^−11 to 10^−4 M) of the non-radioactive competitor of interest in the presence of cell membranes (50 μg/well) and the assay buffer (50 mM Tris-HCl pH 7.4, 5 mM MgCl2). The MultiScreen plate was then incubated at 27° C. for 15 minutes with agitation at 300 rpm. The assay was stopped by suctioning the reaction solution through the bottom PVDF membrane filter and discarded. The membranes were washed 7× with 150 μL/well of cold 50 mM Tris-HCl pH 7.4. Radioactivity was counted using 1450 MicroBeta TriLux—Microplate Scintillation and Luminescence Counter (Perkin Elmer Inc., Shelton, Conn.)."}, "B1R [5]": {"biological_target": "T1, B1R", "details": "Cote et al, Peptides 2009; cited from earlier work"}, "B2R": {"biological_target": "T2, B2R (Homo sapiens, UniProt P30411)", "T2 sequence (P30411 1-391)": "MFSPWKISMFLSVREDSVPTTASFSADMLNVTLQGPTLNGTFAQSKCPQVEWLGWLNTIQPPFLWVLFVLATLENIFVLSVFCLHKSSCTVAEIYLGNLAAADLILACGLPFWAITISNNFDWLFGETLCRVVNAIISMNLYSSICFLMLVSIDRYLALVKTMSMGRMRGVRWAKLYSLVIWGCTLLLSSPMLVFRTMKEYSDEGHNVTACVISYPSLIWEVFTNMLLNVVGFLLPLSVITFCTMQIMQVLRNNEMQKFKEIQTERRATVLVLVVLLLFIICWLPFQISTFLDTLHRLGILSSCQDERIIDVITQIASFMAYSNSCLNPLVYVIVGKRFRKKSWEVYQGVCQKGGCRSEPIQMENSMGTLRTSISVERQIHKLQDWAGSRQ", "details": "Cote et al, Peptides 2009; cited from earlier work"}},
  "note": "“And” between values parts separate entries of the source, which are not always exact repeats. Equal values may be shown once. Read-outs that look alike come from different tables or passages of the source. Where a SMILES comes first, the peptide text is derived from it. Where no end group is shown, it is not given here. [ ]: non-standard residue; d: D form. The star is where a group is joined. DOTA = O=C(O)CN1CCN(CC(=O)O)CCN(CC(=O)*)CCN(CC(=O)O)CC1; Hyp = O=C(O)[C@@H]1C[C@@H](O)CN1; Cha = N[C@@H](CC1CCCCC1)C(=O)O; PEG2 = NCCOCCOCCC(=O)O; Ahx = NCCCCCC(=O)O; Sar = CNCC(=O)O",
  "data": [
    {"molecule": "CC(C)C[C@H](NC(=O)[C@@H]1CCCN1C(=O)[C@H](CO)NC(=O)[C@H](Cc1ccccc1)NC(=O)CNC(=O)[C@@H]1CCCN1C(=O)[C@@H]1CCCN1C(=O)[C@H](CCCNC(=N)N)NC(=O)[C@H](CCCCN)NC(=O)CCCCCNC(=O)CN1CCN(CC(=O)O)CCN(CC(=O)O)CCN(CC(=O)O)CC1)C(=O)O", "note": "[[^68Ga]-Peptide 4, metal not drawn]", "values": [
      {"measurement": "tissue uptake at 1 h", "setting": "in vivo; kidney uptake", "result": "74.9 ± 29.2", "unit": "%ID/g"},
      {"measurement": "tissue uptake at 1 h", "setting": "in vivo; uptakes in both B1R-negative and B1R-positive tumors", "result": "1.1 ± 0.4", "unit": "%ID/g"},
      {"measurement": "excretion of radioactivity", "setting": "[1]", "result": "mainly excreted through the renal pathway"},
      {"measurement": "specific uptake to B1R in tumours", "setting": "[1]", "result": "No specific uptake"}
    ]},
    {"molecule": "N=C(N)NCCC[C@H](NC(=O)[C@H](CCCCN)NC(=O)CCCCCNC(=O)CN1CCN(CC(=O)O)CCN(CC(=O)O)CCN(CC(=O)O)CC1)C(=O)N1CCC[C@H]1C(=O)N1C[C@H](O)C[C@H]1C(=O)NCC(=O)N[C@@H](CC1CCCCC1)C(=O)N[C@@H](CO)C(=O)N1CCC[C@H]1C(=O)N[C@H](Cc1ccccc1)C(=O)O", "note": "[Peptide 12, Ga-DOTA-Ahx-Lys-Arg-Pro-Hyp-Gly-Cha-Ser-Pro-(D-Phe)]", "values": [
      {"measurement": "background activity", "setting": "[2]", "result": "minimal background activity"},
      {"measurement": "clearance route", "setting": "[2]", "result": "good clearance through the kidneys and bladder"},
      {"measurement": "uptake / visualization of B1R+ tumour", "setting": "[2]", "result": "Slightly higher tumour uptake"},
      {"measurement": "uptake in negative control (B1R-) tumour", "setting": "[2]", "result": "no non-specific tumour uptake"}
    ]},
    {"molecule": "CC(C)C[C@H](NC(=O)[C@@H]1CCCN1C(=O)[C@H](CO)NC(=O)[C@H](CC1CCCCC1)NC(=O)CNC(=O)[C@@H]1C[C@@H](O)CN1C(=O)[C@@H]1CCCN1C(=O)[C@H](CCCNC(=N)N)NC(=O)[C@H](CCCCN)NC(=O)CCOCCOCCNC(=O)CN1CCN(CC(=O)O)CCN(CC(=O)O)CCN(CC(=O)O)CC1)C(=O)O", "note": "[Peptide 3, Ga-DOTA-PEG2-Lys-Arg-Pro-Hyp-Gly-Cha-Ser-Pro-Leu] ({DOTA-PEG2}-KRP[Hyp]G[Cha]SPL-OH)", "values": [
      {"measurement": "background activity", "setting": "[3]; in vivo, iv", "result": "very low background activity"},
      {"measurement": "clearance route", "setting": "[3]; in vivo, iv", "result": "renal and bladder clearance"},
      {"measurement": "Ki", "setting": "B1R [4]; Hot 4.6 nM BK-ANT-ARC, CHO-K1 membranes, individual assays, read-out: Ki", "result": "17.1 nM and 16 nM"},
      {"measurement": "Ki", "setting": "B1R [4]; text of Example 5, referring to Example 4, read-out: binding affinity for B1R", "result": 32.8, "unit": "nM"}
    ]},
    {"molecule": "Sar-Lys-Arg-Pro-Hyp-Gly-Cha-Ser-Pro-(D-Phe) ([Sar]KRP[Hyp]G[Cha]SP[dF])", "values": [
      {"measurement": "Ki", "setting": "B1R [5]", "result": 0.06, "unit": "nM"},
      {"measurement": "Ki", "setting": "B2R", "result": "> 10", "unit": "µM"}
    ]},
    {"molecule": "CC(C)C[C@H](NC(=O)[C@@H]1CCCN1C(=O)[C@H](CO)NC(=O)[C@H](CC1CCCCC1)NC(=O)CNC(=O)[C@@H]1C[C@@H](O)CN1C(=O)[C@@H]1CCCN1C(=O)[C@H](CCCNC(=N)N)NC(=O)[C@H](CCCCN)NC(=O)CCCCCNC(=O)CN1CCN(CC(=O)O)CCN(CC(=O)O)CCN(CC(=O)O)CC1)C(=O)O", "note": "[Peptide 10, Ga-DOTA-Ahx-Lys-Arg-Pro-Hyp-Gly-Cha-Ser-Pro-Leu] ({DOTA-Ahx}-KRP[Hyp]G[Cha]SPL-OH)", "values": [
      {"measurement": "in vivo stability", "setting": "[3]", "result": "much greater in vivo stability"},
      {"measurement": "background activity", "setting": "[3]; in vivo, iv", "result": "lower background uptake"}
    ]},
    {"molecule": "CC(C)C[C@H](NC(=O)[C@@H]1CCCN1C(=O)[C@H](CO)NC(=O)[C@H](CC1CCCCC1)NC(=O)CNC(=O)[C@@H]1C[C@@H](O)CN1C(=O)[C@@H]1CCCN1C(=O)[C@H](CCCNC(=N)N)NC(=O)[C@H](CCCCN)NC(=O)CNC(=O)CNC(=O)CN1CCN(CC(=O)O)CCN(CC(=O)O)CCN(CC(=O)O)CC1)C(=O)O", "note": "[Peptide 8, Ga-DOTA-Gly-Gly-Lys-Arg-Pro-Hyp-Gly-Cha-Ser-Pro-Leu] ({DOTA}-GGKRP[Hyp]G[Cha]SPL-OH)", "values": [
      {"measurement": "clearance route", "setting": "[2]", "result": "predominantly via the kidneys and bladder"},
      {"measurement": "uptake / visualization of B1R+ tumour", "setting": "[2]", "result": "good visualization of B1R+ expressing cells"},
      {"measurement": "uptake in negative control (B1R-) tumour", "setting": "[2]", "result": "essentially negligible non-specific uptake"}
    ]}
  ]
}
